In patent publication US5882881A, “Inhibition of cyst formation by cytoskeletal specific drugs” (priority 1998, dated 1999):
Entries after “also recorded” stand apart in the source; their conditions may differ. Where two headings read alike, the source gives them in different places.

Columns and labels:
Murine CPK Cells [1] = assay: In vitro cyst formation and cyst size in suspension culture of murine CPK cells; format: cell-based, mouse; conditions: for Cyst Size: mean ± SD of twenty cysts, concentrations as in Table II, control 71 ± 22; for cyst formation (in words): 24 h suspension culture, ouabain 0.5 mM, also 1 mM, b155 taxol 25 μM, colchicine 10 μM, vinblastine 1 μM, cytochalasins 10 μM, model species not given
Procedure: At 10, 21 and 28 days after birth, mice having congenital polycystic kidney disease (CPK) and their phenotypically normal littermates were sacrificed by cervical dislocation. Kidneys were harvested aseptically and washed with DMEM/F12 (Sigma Chemical Co., St. Louis, Mo.) in a 1:1 mix. Each decapsulated kidney was chopped into cubes (1 mm) and incubated in 5 ml of collagenase solution composed of 1 mg/ml collagenase type IV (Worthington Biochemical Corporation, Freehold, N.J.), 1 mg/ml egg white trypsin inhibitor (Worthington) in 1:1 DMEM/F12.
The top 12 mls, which contained both single cells and aggregates of up to 10 cells, as assessed by inverted phase-ontrast microscopy, were placed in 2 ml aliquots in the wells of plastic culture plates (Corning, N.Y.) precoated with 1% agarose in DMEM:F12 (2 ml in each well of a 6-well plate; 1 ml in each well of a 24-well plate). Cell samples were digested with further incubation for 10 minutes in 0.05% trypsin and 0.53 mM EDTA (Gibco, BRL Gaithesburg, Md.) at 37° C. All cultures were plated at a final density of 1-3×10^4 cell, per well. For growth studies of monolayer cells, identical preparations were grown on the plastic surface of the culture plates. Both the monolayers and the cell suspensions were incubated at 37° C. in a moisture saturated incubator in 5% CO2 and air.
(§1) I used the in vitro cyst formation system of the present invention to analyze compounds that affect the process of cyst formation. To determine the therapeutic effectiveness of an agent, cyst-forming cells are suspended in a medium to which the agent has been added. These cells are then cultured on a solid phase without formation of a layer of cells on the surface, such as in the assay system described in Example 1. The extent to which the cells actually form cysts can be detected and compared to the extent of cyst formation expected if no agent were added. If the amount of cyst formation is lower than expected, then the agent is a good candidate for therapeutic intervention of cystic diseases.
(§2) The effects of various metabolic inhibitors on cyst formation were studied in cultures derived from day 21 postnatal CPK mice. […] Taxol (25 μM), a microtubule specific inhibitor, was from Calbiochem (La Jolla, Calif.). All other chemicals were obtained from Sigma Chemical Co. Cytosine arabinoside was added at the final concentration of 20 μg/ml to inhibit DNA synthesis; α-amanitin at 100 ng/ml to inhibit RNA synthesis; cycloheximide at 40 μg/ml to inhibit protein synthesis; amiloride at 1 mM to inhibit the renal epithelial Na^+ -H^+ exchange; ouabain at 0.5 mM to inhibit Na^+ -K^+ -ATPase; brefeldin-A at 10 μg/ml to inhibit transport of surface proteins; griseofulvin at 350 μM to inhibit microtubule function; colchicine at 10 μM to inhibit microtubule polymerization; and cytochalasin-B and cytochalasin-D at 10 μM to depolymerize actin filaments.
(§3) In the presence of these metabolic inhibitors in vitro, cyst formation was noted to be either present or absent; if present, the diameters of 20 cysts from a 0.2 ml aliquot were measured. In the same samples, ^3 H-dThd incorporation was also measured as described above. […] After each wash, cell clusters were collected by centrifuging at 200×g for 1 minute and the supernatant discarded. Washed cell clusters were resuspended in the original volume of growth medium without inhibitors, placed in agarose coated wells and incubated at 37° C. in a moisture saturated incubator in 5% CO2 and air.
(§4) In this table, the mean cyst size is reported as ±SD with a measurement of twenty cysts. The ^3 H-dThd incorporation is reported as ±SD using measurements of three wells. The * indicates […] versus control. […] The entries listed as "NA" in the table indicate data that is not available.

Murine CPK Cells [2] = assay: 3H-thymidine incorporation (DNA synthesis) in CPK cell suspension culture; format: cell-based, mouse; conditions: for ^3 H-dThd Incorporation: ± SD, three wells, concentrations as in Table II, control 100 ± 11, 1440 min; for ^3 H-dThd incorporation / DNA synthesis (in words): CPK cultures
Procedure: Growth studies were performed on kidney cells derived from day 10, 21 and 28 postnatal CPK mice and their normal littermates. Immediately after cells were placed in suspension or monolayer culture, 3 μCi of ^3 H-thymidine (^3 H-dThd, specific activity 45 Ci/mmol, Amersham, Ill.) was placed in each well of the culture plate. DNA synthesis was assessed by incorporation of ^3 H-dThd over the 24 hours of culture, and trichloroacetic acid-insoluble. radioactivity was expressed as cpm/μg protein. Protein was assayed with the BCA reagent as described by the manufacturer (Pierce, Rockford, Ill.). At 24 hours of culture, an aliquot (0.2 ml) of the suspension was removed and the number of cysts counted using an inverted microscope. The number of cysts was expressed as a ratio factored for the total number of cells in the suspension at 24 hours of culture. Cyst diameter was measured at 100× using an eyepiece micrometer.
as §2, §3, §4

human ADPKD cells = assay: In vitro cyst formation in human ADPKD cells; format: cell-based
Description: I have substituted human ADPKD cells for the murine CPK cells of Example 1 and produced similar results. Other cyst-forming cells are believed to also form suitable results with only minor deviations from the conditions set forth in Example 1.
Cell suspensions were separated from debris by sedimentation at unit gravity and decantation. After washing once with DMEM/F12 medium, cells were suspended in DMEM/F12 supplemented with 1.2 gm/l sodium bicarbonate, 1× insulin, transferrin and selenium (Sigma # 11184), 1% lipids supplement (Sigma # L4646) and 1× antibiotic/antimycotic (Sigma # A7292) at a density of 5×10^4 cells per ml. Two mls of the cell suspension were aliquoted into each well of a six-well plastic cell culture plates that had been precoated with 2 mls of 1% low melting point agarose in DMEM/F12 and incubated at 37° C. in a humidified atmosphere of 5% CO2 in air.
as §1

Murine CPK Cells [3] = assay: In vitro cyst formation and cyst size in suspension culture of murine CPK cells; format: cell-based, mouse; conditions: day 21, 24 h, final concentration per Table II (cytosine arabinoside 20 μg/ml, α-amanitin 100 ng/ml, cycloheximide 49 μg/ml, ouabain 1 mM, amiloride 1 mM, brefeldin-A 10 μg/ml, griseofulvin 350 μM, colchicine 10 μM, vinblastine 1 μM, nocodazole 30 μM, taxol 25 μM, cytochalasins 10 μM)
homozygous cpk mice = assay: Survival of cpk mice on weekly intraperitoneal treatment (Example 8, FIG. 2); format: in vivo, mouse
Description: Untreated and methotrexate (MTX) treated polycystic cpk mice all died before 30 days of age. Most polycystic cpk mice treated with weekly taxol survive more than 60 days. The dotted line starting at day 120 indicates the number and age of apparently healthy taxol treated polycystic mice that were sacrificed for histology studies. Pairs of mice were sacrificed at 120 days, 182 days and 210 days of age.
In order to determine whether taxol prevents cyst formation by inhibiting cell division, another drug known to have anti-mitotic activity, methotrexate, was tested for its ability to treat homozygous cpk mice. Six cpk mice were injected intraperitoneally with 15 μl of methotrexate solution (1.1 mg/ml in water) 10-12 days after birth and once every week thereafter. The methotrexate-injected mice survived until between 18 and 27 days after birth, with only one mouse living longer than 28 days. […] Therefore, the anti-mitotic activity of taxol cannot explain its ability to treat CPK mice having a polycystic-type kidney disease. Rather, the results from in vitro tests indicate that agents which interfere with the function of the cytoskeleton, or which inhibit the delivery of membrane proteins are useful in treating cystic diseases such as Polycystic Kidney Disease.
Eleven homozygous cpk mice, raised and identified as in Example 6 were treated with 15 μl of 10 mg/ml taxol in DMSO through intraperitoneal injection beginning 11-14 days after birth. Following the first treatment, the mice were administered with the same treatment once every week thereafter. As controls, 6 cpk mice were treated with 15 μl intraperitoneal injections of DMSO beginning 10-12 days after birth and then once every week thereafter.

[4] = human ADPKD cells, cytosine arabinoside 20 μg/ml, α-amanitin 100 ng/ml, cycloheximide 40 μg/ml, amiloride 1 mM, ouabain 0.5 mM, taxol 25 μM, colchicine 10 μM, vinblastine 1 μM, cytochalasins 10 μM

Row | Compound | Cyst Size (Murine CPK Cells [1]) | ^3 H-dThd Incorporation (Murine CPK Cells [2]) | cyst formation (in words) (human ADPKD cells; [4]) | Cyst Formation (+/-) (Murine CPK Cells [3]) | cyst formation (in words) (Murine CPK Cells [1]; murine CPK cells) | also measured
1 | N=C(N)NC(=O)c1nc(Cl)c(N)nc1N [Amiloride] | 0 μm | 72 ± 25 % control | completely block cyst formation | - |  | cyst formation (in words) (human ADPKD cells; human ADPKD cells, cytosine arabinoside 20 μg/ml, α-amanitin 100 ng/ml, cycloheximide 40 μg/ml, amiloride 1 mM, ouabain 0.5 mM, taxol 25 μM, colchicine 10 μM, vinblastine 1 μM, cytochalasins 10 μM, listed as amiloride): cyst formation can be blocked; time to lumen appearance after removing the inhibitor (human ADPKD cells; human model): twenty-four; reversibility of inhibition of cyst formation (human ADPKD cells; human model, inhibitor removed): reversible
2 | C[C@H]1CCC/C=C/[C@@H]2C[C@H](O)C[C@H]2[C@H](O)/C=C/C(=O)O1 [Brefeldin-A] | 0 μm |  |  | - | completely inhibited cyst formation | 
3 | COc1cc2c(c(OC)c1OC)-c1ccc(OC)c(=O)cc1[C@@H](NC(C)=O)CC2 [Colchicine] |  | 97 ± 12 % control |  |  |  | 
4 | C[C@@H]1C[C@@H]([C@H](O)CC2CC(=O)NC(=O)C2)C(=O)[C@@H](C)C1 [Cycloheximide] | 68 ± 17 μm | 88 ± 20 % control |  |  |  | Cyst Formation (+/-) (Murine CPK Cells [1]): +; cyst formation (in words) (human ADPKD cells): Neither cytosine arabinoside (20 μg/ml), α-amanitin (100 ng/ml) nor cycloheximide (40 μg/ml) inhibited cyst formation
5 | C=C1C(C)C2C(Cc3ccccc3)NC(=O)C23OC(=O)/C=C/C(O)CCCC(C)C/C=C/C3C1O (stereo not shown) [Cytochalasin-B] | 0 μm | 96 ± 5 % control | effectively inhibited cyst formation in both models | - | effectively inhibited cyst formation in both models | 
6 | C=C1C(C)C2C(Cc3ccccc3)NC(=O)C23C(OC(C)=O)/C=C/C(C)(O)C(=O)C(C)C/C=C/C3C1O (stereo not shown) [Cytochalasin-D] | 0 μm | 97 ± 2 % control | effectively inhibited cyst formation in both models | - | effectively inhibited cyst formation in both models | 
7 | Nc1ccn([C@@H]2O[C@H](CO)[C@@H](O)[C@@H]2O)c(=O)n1 [Cytosine arabinoside, cytosine arabinoside] | 70 ± 21 μm | 2 ± 2 % control | Neither cytosine arabinoside (20 μg/ml), α-amanitin (100 ng/ml) nor cycloheximide (40 μg/ml) inhibited cyst formation; also recorded: no effect on in vitro cyst formation is observed | + | cyst formation was not affected; also recorded: cyst formation was not impaired after 24 hours of culture | ^3 H-dThd incorporation / DNA synthesis (in words) (Murine CPK Cells [2]): profound decrease in ^3 H-dThd incorporation; also recorded: effectively abolished ^3 H-dThd incorporation; ^3 H-dThd Incorporation (Murine CPK Cells [2]; listed as cytosine arabinoside): 2±2 % control
8 | CN(Cc1cnc2nc(N)nc(N)c2n1)c1ccc(C(=O)N[C@@H](CCC(=O)O)C(=O)O)cc1 [Methotrexate] |  |  |  |  |  | survival, age (homozygous cpk mice; weekly i.p. treatment, DMSO mice survived 24-28 days, FIG. 2: all methotrexate, most taxol mice, b191: remaining six taxol mice > 120, two died < 30): < 30 days; survival (in words) (homozygous cpk mice; weekly i.p., versus untreated or DMSO): did not appear to survive substantially longer than untreated controls
9 | COC(=O)Nc1nc2ccc(C(=O)c3cccs3)cc2[nH]1 [Nocodazole] | 0 μm | 87 ± 16 % control | reversibly inhibited | - | reversibly inhibited | 
10 | CC[C@]1(O)C[C@@H]2CN(CCc3c([nH]c4ccccc34)[C@@](C(=O)OC)(c3cc4c(cc3OC)N(C)[C@H]3[C@@](O)(C(=O)OC)[C@H](OC(C)=O)[C@]5(CC)C=CCN6CC[C@]43[C@@H]65)C2)C1 [Vinblastine] | 0 μm | 93 ± 9 % control | reversibly inhibited in vitro cyst formation in both models | - | reversibly inhibited in vitro cyst formation in both models | 
11 | α-amanitin | 65 ± 27 μm | 71 ± 10 % control | Neither cytosine arabinoside (20 μg/ml), α-amanitin (100 ng/ml) nor cycloheximide (40 μg/ml) inhibited cyst formation |  |  | Cyst Formation (+/-) (Murine CPK Cells [1]; murine CPK cells, day 21, 24 h, final concentration per Table II (cytosine arabinoside 20 μg/ml, α-amanitin 100 ng/ml, cycloheximide 49 μg/ml, ouabain 1 mM, amiloride 1 mM, brefeldin-A 10 μg/ml, griseofulvin 350 μM, colchicine 10 μM, vinblastine 1 μM, nocodazole 30 μM, taxol 25 μM, cytochalasins 10 μM)): +; ^3 H-dThd incorporation / DNA synthesis (in words) (Murine CPK Cells [2]): small, but significant, decrease in ^3 H-dThd incorporation
